Experimental data: ChEMBL document CHEMBL3877248, “Further investigation of inhibitors of MRSA pyruvate kinase: Towards the conception of novel antimicrobial agents” (Eur J Med Chem, 2017)
In brackets after ≈: the same amount, converted by molar mass.

Key:
Pyruvate kinase = target: T1, Pyruvate kinase (Staphylococcus aureus (strain MRSA252), UniProt Q6GG09); experiment: Inhibition of recombinant N-terminal His-tagged methicillin-resistant Staphylococcus aureus MRSA252 pyruvate kinase expressed in Escherichia coli BL21(DE3) using PEP as substrate measured after 5 mins by LDH-coupled assay; design: species or system Staphylococcus aureus subsp. aureus MRSA252
T1 sequence (Q6GG09 whole entry): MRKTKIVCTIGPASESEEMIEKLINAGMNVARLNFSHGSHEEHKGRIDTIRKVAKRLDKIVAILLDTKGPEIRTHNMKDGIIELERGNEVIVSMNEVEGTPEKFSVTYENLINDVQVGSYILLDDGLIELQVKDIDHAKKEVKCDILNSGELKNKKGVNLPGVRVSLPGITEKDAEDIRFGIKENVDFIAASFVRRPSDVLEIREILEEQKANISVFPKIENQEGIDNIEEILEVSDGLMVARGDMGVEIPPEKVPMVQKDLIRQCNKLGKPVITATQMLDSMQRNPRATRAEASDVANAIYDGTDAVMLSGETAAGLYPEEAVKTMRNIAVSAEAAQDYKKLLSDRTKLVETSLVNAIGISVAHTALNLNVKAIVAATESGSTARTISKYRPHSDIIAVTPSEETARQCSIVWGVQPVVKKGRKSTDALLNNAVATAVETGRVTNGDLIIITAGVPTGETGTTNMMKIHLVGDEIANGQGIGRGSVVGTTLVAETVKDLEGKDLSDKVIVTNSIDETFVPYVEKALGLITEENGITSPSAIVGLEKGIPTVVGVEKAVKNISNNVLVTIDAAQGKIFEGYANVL

Staphylococcus aureus [1] = experiment: Antibacterial activity against Staphylococcus aureus ATCC 29213 measured after 24 hrs by two-fold microbroth dilution method; type: functional
[2] = target: T2, Pyruvate kinase (Staphylococcus aureus (strain MRSA252)) (UniProt Q6GG09); experiment: Inhibition of recombinant N-terminal His-tagged methicillin-resistant Staphylococcus aureus MRSA252 pyruvate kinase expressed in Escherichia coli BL21(DE3) at 1 uM using PEP as substrate measured after 5 mins by LDH-coupled assay relative to control; details: Staphylococcus aureus subsp. aureus MRSA252
T2 sequence (whole entry): T1 sequence (Q6GG09 whole entry)

[3] = target: T2, Pyruvate kinase (Staphylococcus aureus (strain MRSA252)); experiment: Inhibition of recombinant N-terminal His-tagged methicillin-resistant Staphylococcus aureus MRSA252 pyruvate kinase expressed in Escherichia coli BL21(DE3) at 10 uM using PEP as substrate measured after 5 mins by LDH-coupled assay relative to control; details: Staphylococcus aureus subsp. aureus MRSA252
[4] = target: T2, Pyruvate kinase (Staphylococcus aureus (strain MRSA252)); experiment: Inhibition of recombinant N-terminal His-tagged methicillin-resistant Staphylococcus aureus MRSA252 pyruvate kinase expressed in Escherichia coli BL21(DE3) at 0.1 uM using PEP as substrate measured after 5 mins by LDH-coupled assay relative to control; details: Staphylococcus aureus subsp. aureus MRSA252
Staphylococcus aureus [5] = experiment: Antibacterial activity against methicillin-resistant Staphylococcus aureus MRSA252 by two-fold microbroth dilution method; type: functional
[6] = Selectivity ratio for inhibition of recombinant N-terminal His-tagged methicillin-resistant Staphylococcus aureus MRSA252 pyruvate kinase over inhibition of human recombinant N-terminal His-tagged pyruvate kinase M2
[7] = Selectivity ratio for inhibition of recombinant N-terminal His-tagged methicillin-resistant Staphylococcus aureus MRSA252 pyruvate kinase over inhibition of human recombinant N-terminal His-tagged pyruvate kinase-R
[8] = Selectivity ratio for inhibition of recombinant N-terminal His-tagged methicillin-resistant Staphylococcus aureus MRSA252 pyruvate kinase over inhibition of human recombinant N-terminal His-tagged pyruvate kinase-L
[9] = Selectivity ratio for inhibition of recombinant N-terminal His-tagged methicillin-resistant Staphylococcus aureus MRSA252 pyruvate kinase over inhibition of human recombinant N-terminal His-tagged pyruvate kinase M1

Row | Structure (SMILES) | IC50 (Pyruvate kinase) [nM] | MIC>98 (Staphylococcus aureus [1]) [µg/mL] | inhibition [2] [%] | also measured
1 | O=C(Nc1cc(Br)ccc1O)c1cc2ccc(Br)cc2[nH]1 | 12 | >64 | – | –
2 | COc1ccc(Br)cc1-c1nnc(-c2cc3ccccc3[nH]2)o1 | – | >64 | 19 | –
3 | COc1ccc(Br)cc1-c1cccc(-c2cc3ccccc3[nH]2)n1 | – | >64 | 6 | –
4 | O=C(Nc1nc2ccc(Br)cc2s1)c1cc2ccccc2[nH]1 | – | >64 | – | –
5 | O=C(/C=C/c1cc2ccc(Br)cc2[nH]1)c1cc2ccc(Br)cc2[nH]1 | – | – | 6 | –
6 | O=C1c2ccc(Br)cc2C(=O)N1c1nc2ccc(Br)cc2s1 | – | >64 | 34 | –
7 | O=C(Nc1cccc(Br)c1O)c1cc2ccc(Br)cc2[nH]1 | – | >64 | – | –
8 | O=C(Nc1nc2cc(Br)ccc2s1)c1cc(Br)ccc1O | – | >64 | 48 | –
9 | COc1ccc(Br)cc1C(=O)Nc1nc2ccc(Br)cc2s1 | 8 | >64 | – | –
10 | O=C(/C=C/c1cc(Br)ccc1O)c1cc2ccccc2[nH]1 | 355 | 2 (≈ 5.84 µM) | – | –
11 | O=C(/C=C/c1cc2ccccc2[nH]1)c1cccc(Br)c1O | – | – | – | inhibition [3]: 2%
12 | O=C(Nc1ccc(Br)cc1)c1cc2ccc(Br)cc2[nH]1 | 10 | >64 | – | –
13 | O=C(Nc1nc2ccc(Br)cc2s1)c1cc2cc(Br)ccc2[nH]1 | 23 | >64 | – | –
14 | O=C(/C=C/c1cc2ccccc2[nH]1)c1cc2ccc(Br)cc2[nH]1 | 5 | >64 | – | –
15 | O=C(Nc1nc2cc(Br)ccc2s1)c1cc2ccccc2[nH]1 | – | >64 | – | –
16 | O=C(/C=C/c1c[nH]c2ccc(Br)cc12)c1cc2ccccc2[nH]1 | 1780 | >64 | – | –
17 | O=C(Nc1nc2ccc(Br)cc2s1)c1cc(Br)cc(Br)c1O | 4 | 1 (≈ 1.97 µM) | – | –
18 | O=C(/C=C/c1cc2ccc(Br)cc2[nH]1)c1cc(Br)ccc1O | – | >64 | 15 | –
19 | O=C(Nc1nc2ccc(Br)cc2s1)c1cccc(Br)c1O | – | 4 (≈ 9.34 µM) | – | –
20 | O=C(/C=C/c1cc2ccccc2[nH]1)c1ccc(Br)cc1O | 553 | >64 | – | –

Row | Structure (SMILES) | IC50 (Pyruvate kinase) [nM] | MIC>98 (Staphylococcus aureus [1]) [µg/mL] | inhibition [2] [%] | also measured
21 | O=C(/C=C/c1cc2ccc(Br)cc2[nH]1)c1cc2cc(Br)ccc2[nH]1 | – | >64 | 21 | –
22 | COc1c(Br)cccc1C(=O)Nc1nc2ccc(Br)cc2s1 | – | >64 | 22 | –
23 | O=C(/C=C/c1cc2ccc(Br)cc2[nH]1)c1ccccc1O | 343 | >64 | – | –
24 | O=C(Nc1nc2cc(Br)ccc2[nH]1)c1cc2cc(Br)ccc2[nH]1 | 3 | >64 | – | –
25 | O=C(Nc1nc2ccc(Br)cc2s1)c1cc(Br)ccc1O | – | >64 | – | –
26 | Cn1c(C(=O)Nc2nc3ccc(Br)cc3s2)cc2ccccc21 | – | >64 | 41 | –
27 | O=C(/C=C/c1c[nH]c2cc(Br)ccc12)c1c[nH]c2ccccc12 | – | – | 28 | –
28 | O=C(/C=C/c1cccc(Br)c1O)c1cc2ccc(Br)cc2[nH]1 | 403 | >64 | – | –
29 | Oc1c(Br)cccc1CNc1nc2ccc(Br)cc2s1 | – | – | 17 | –
30 | Oc1ccc(Br)cc1-c1ccnc(-c2cc3ccc(Br)cc3[nH]2)c1 | – | >64 | – | inhibition [4]: 41%
31 | O=C(Nc1ccc(Br)cc1)c1cc2ccc(Br)cc2s1 | – | >64 | – | inhibition [4]: 43%
32 | Brc1ccc(-c2c[nH]c3ccc(Br)cc23)cc1 | – | 1 (≈ 2.85 µM) | – | inhibition [4]: 20%
33 | Oc1ccc(Br)cc1/C=N/c1nc2ccc(Br)cc2s1 | – | 64 (≈ 155 µM) | 41 | –
34 | O=C(/C=C/c1ccc(Br)cc1O)c1cc2ccc(Br)cc2[nH]1 | 14 | >64 | – | –
35 | O=C(Nc1ccc(Br)cc1)c1cc2ccccc2[nH]1 | – | >64 | 41 | –
36 | O=C(/C=C/c1cc2ccc(Br)cc2[nH]1)c1cc2ccccc2[nH]1 | – | >64 | 38 | –
37 | COc1ccc(Br)cc1/C=C1\CCc2c([nH]c3ccccc23)C1=O | – | – | 22 | –
38 | CN(C(=O)c1cc(Br)ccc1O)c1nc2ccc(Br)cc2s1 | – | – | 5 | –
39 | O=C(/C=C/c1cc2ccccc2[nH]1)c1cc(Br)ccc1O | – | – | 10 | –
40 | O=C(Nc1nc2cc(Br)ccc2[nH]1)c1cc(Br)ccc1O | 11 | 4 (≈ 9.73 µM) | – | –

Row | Structure (SMILES) | IC50 (Pyruvate kinase) [nM] | MIC>98 (Staphylococcus aureus [1]) [µg/mL] | inhibition [2] [%] | also measured
41 | O=C(/C=C/c1cc(Br)ccc1O)c1cc2ccc(Br)cc2[nH]1 | 24 | 1 (≈ 2.37 µM) | – | –
42 | O=C(Nc1nc2cc(Br)ccc2[nH]1)c1cc2ccc(Br)cc2[nH]1 | 2 | >64 | – | –
43 | O=C(Nc1nc2ccccc2s1)c1cc(Br)ccc1O | – | >64 | 13 | –
44 | Brc1ccc(-c2c[nH]c3cc(Br)ccc23)cc1 | – | 2 (≈ 5.7 µM) | – | –
45 | O=C(Nc1cc(Br)ccc1O)c1cc2ccccc2[nH]1 | – | – | 28 | –
46 | COc1ccc(Br)cc1/C=C/C(=O)c1cc2ccc(Br)cc2[nH]1 | 8 | >64 | – | –
47 | O=C(c1ncc(-c2c[nH]c3cc(Br)ccc23)[nH]1)c1c[nH]c2ccccc12 [BROMODEOXYTOPSENTIN] | 60 | – | – | –
48 | O=C(/C=C/c1cc2ccc(Br)cc2[nH]1)c1ccc(Br)cc1O | 132 | >64 | – | –
49 | Oc1ccc(Br)cc1-c1nnc(-c2cc3ccccc3[nH]2)o1 | – | >64 | 8 | –
50 | O=C(Nc1nc2ccc(Br)cc2s1)c1ccc(Br)cc1O | – | >64 | – | –
51 | Brc1ccc(-c2cc3cc(Br)ccc3[nH]2)cc1 | – | – | 21 | –
52 | O=C(/C=C/c1cc2ccc(Br)cc2[nH]1)c1cccc(Br)c1O | – | >64 | 41 | –
53 | O=C(Nc1nc2ccc(Br)cc2s1)c1cccc(Cl)c1O | – | 4 (≈ 10.4 µM) | – | inhibition [4]: 43%
54 | O=C1NC[C@@H](c2c[nH]c3cc(Br)ccc23)N[C@H]1c1c[nH]c2cc(Br)ccc12 [CIS-3,4-DIHYDROHAMACANTHIN B] | – | – | – | MIC (Staphylococcus aureus [5]): 12.5 µg/mL (≈ 25.6 µM); Selectivity ratio [6]: 166 to 600; Selectivity ratio [7]: 166 to 600; Selectivity ratio [8]: 166 to 600; Selectivity ratio [9]: 166 to 600
55 | O=C(Nc1nc2cc(Br)ccc2s1)c1cc2cc(Br)ccc2[nH]1 | 8 | >64 | – | –
56 | O=C(Nc1nc2ccc(Br)cc2s1)c1ccccc1O | – | >64 | 65 | –
57 | O=C(/C=C/c1c[nH]c2ccc(Br)cc12)c1c[nH]c2ccccc12 | – | – | 1 | –
58 | O=C(/C=C/c1c[nH]c2cc(Br)ccc12)c1cc2ccccc2[nH]1 | – | – | 45 | –
